Patent publication US12264139B2, “Aryl sulfonamides as BLT1 antagonists” (Merck Sharp & Dohme LLC, priority 2015, dated 2025)

Target: T1, human BLT1 receptor (Homo sapiens, UniProt Q15722)
T1 construct: expressed in transfected cells; host or cells: HEK293
Assay: BLT-1 cAMP Assay
Format: cell-based
Details: HEK293 cells recombinantly expressing human BLT1; antagonist activity vs forskolin 4 μM and LTB4 2 nM; cAMP (CisBio kit)

T1 sequence (Q15722 whole entry): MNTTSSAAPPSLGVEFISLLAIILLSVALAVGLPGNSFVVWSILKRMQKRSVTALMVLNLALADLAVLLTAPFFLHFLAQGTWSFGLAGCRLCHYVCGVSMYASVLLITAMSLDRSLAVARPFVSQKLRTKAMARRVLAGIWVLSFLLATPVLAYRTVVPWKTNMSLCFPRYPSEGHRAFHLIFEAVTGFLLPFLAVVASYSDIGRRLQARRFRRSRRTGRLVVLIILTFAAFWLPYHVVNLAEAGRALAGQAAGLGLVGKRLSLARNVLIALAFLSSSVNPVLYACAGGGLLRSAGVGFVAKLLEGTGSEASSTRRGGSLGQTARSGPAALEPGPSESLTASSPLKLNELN

| EC50 [nM] | SMILES |
| --- | --- |
| 72 | CC(c1ccccn1)C1COc2cc(-c3cc(F)ccc3NS(=O)(=O)C(F)(F)F)ccc2C1O (single isomer, unassigned) [Example 100, 1,1,1-trifluoro-N-(4-fluoro-2-(4-hydroxy-3-(1-(pyridin-2-yl)ethyl)chroman-7-yl)phenyl) methanesulfonamide] |
| 31 | O=S(=O)(Nc1ccccc1-c1ccc2c(c1)OCC(Cc1ccccc1)C2O)C(F)(F)F (racemic) [Example 2, N-(2-((3,4-Rac-trans)-3-benzyl-4-hydroxychroman-7-yl)phenyl)-1,1,1-trifluoromethanesulfonamide] |
| 737 | Cn1nc(-c2ccccc2)cc1C[C@H]1COc2cc(-c3ccccc3NS(=O)(=O)C(F)(F)F)ccc2[C@@H]1O (single isomer, unassigned) [Example 36, 1,1,1-Trifluoro-N-(2-((3S,4R or 3R,4S)-4-hydroxy-3-((1-methyl-3-phenyl-1H-pyrazol-5-yl)methyl)chroman-7-yl)phenyl)methanesulfonamide] |
| 157 | CCn1ccc(C[C@H]2COc3cc(-c4ccccc4NS(=O)(=O)C(F)(F)F)ccc3[C@@H]2O)n1 (single isomer, unassigned) [Example 46, N-(2-((3S,4R or 3R,4S)-3-((1-ethyl-1H-pyrazol-3-yl)methyl)-4-hydroxychroman-7-yl)phenyl)-1,1,1-trifluoromethanesulfonamide] |
| 971 | O=S(=O)(Nc1ccccc1-c1ccc2c(c1)OC[C@@H](Cc1csc(-c3ccccc3)n1)[C@@H]2O)C(F)(F)F (single isomer, unassigned) [Example 64, 1,1,1-Trifluoro-N-(2-((3R,4S or 3S,4R)-4-hydroxy-3-((2-phenylthiazol-4-yl)-methyl)chroman-7-yl)-phenyl)methanesulfonamide] |
| 118 | O=S(=O)(CC(F)(F)F)Nc1ncccc1-c1ccc2c(c1)OC[C@@H](Cc1ccccn1)[C@@H]2O (single isomer, unassigned) [Example 77, 2,2,2-Trifluoro-N-(3-((3R,4S or 3S,4R)-4-hydroxy-3-(pyridin-2-ylmethyl)chroman-7-yl)pyridin-2-yl)ethanesulfonamide] |
| 119 | O=S(=O)(Nc1ccccc1-c1ccc2c(c1)OC[C@@H](Cc1ccccn1)[C@@H]2O)C(F)F (single isomer, unassigned) [Example 82, 1,1-Difluoro-N-(2-((3S,4R or 3R,4S)-4-hydroxy-3-(pyridin-2-ylmethyl)chroman-7-yl)phenyl)methanesulfonamide] |
| 2980 | CS(=O)(=O)Nc1ccccc1-c1ccc2c(c1)OC[C@H](Cc1ccccn1)[C@H]2O (single isomer, unassigned) [Example 72, N-{2-[(3S,4R or 3R,4S)-4-hydroxy-3-(pyridin-2-ylmethyl)-3,4-dihydro-2H-chromen-7-yl]phenyl}methanesulfonamide] |
| 4540 | O=S(=O)(Nc1ccccc1-c1ccc2c(c1)OC[C@@H](Cc1cncs1)[C@H]2O)C(F)(F)F (racemic) [Example 10, 1,1,1-Trifluoro-N-(2-((3,4-rac-cis)-4-hydroxy-3-(thiazol-5-ylmethyl)chroman-7-yl)phenyl)methanesulfonamide] |
| 5.3 | O=S(=O)(Nc1ccccc1-c1ccc2c(c1)OC[C@H](Cc1ccc(-c3ccccc3)cc1)[C@H]2O)C(F)(F)F (single isomer, unassigned) [Example 68, N-{2-[(3R,4S or 3S,4R)-3-(biphenyl-4-ylmethyl)-4-hydroxy-3,4-dihydro-2H-chromen-7-yl]phenyl}-1,1,1-trifluoromethanesulfonamide] |
| 678 | CC(c1ccccn1)C1COc2cc(-c3cc(F)ccc3NS(=O)(=O)C(F)(F)F)ccc2C1O (single isomer, unassigned) [Example 101, 1,1,1-trifluoro-N-(4-fluoro-2-(4-hydroxy-3-(1-(pyridin-2-yl)ethyl)chroman-7-yl)phenyl) methanesulfonamide] |
| 481 | O=S(=O)(CC(F)(F)F)Nc1ccccc1-c1ccc2c(c1)OC[C@@H](Cc1ccccn1)[C@@H]2O (single isomer, unassigned) [Example 80, 2,2,2-Trifluoro-N-(2-((3S,4R or 3R,4S)-4-hydroxy-3-(pyridin-2-ylmethyl)chroman-7-yl)phenyl)ethanesulfonamide] |
